Test results: ChEMBL document CHEMBL1201862, “PubChem BioAssay data set” (2004)
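Where inhibition never reached the appropriate level, the endpoint shown equals the highest concentration tested. Otherwise, values were interpolated linearly from a five-concentration, 48-hour dose response in 96-well plates. The concentration for 50% growth inhibition is given as GI50.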 Calls of active or inactive are those of the source. Rule as the data show it: active = GI50 up to about 1.1 µM and inactive = higher.

Experiments:
Assay in all cases: growth of human tumour cells (NCI), 48 h
786-0 = test system: 786-0
A549 = test system: A549
HOP-62 = test system: HOP-62
IGROV-1 = test system: IGROV-1
KM12 = test system: KM12
OVCAR-3 = test system: OVCAR-3
OVCAR-5 = test system: OVCAR-5
SF-268 = test system: SF-268
SF-295 = test system: SF-295
SF-539 = test system: SF-539
SK-OV-3 = test system: SK-OV-3
SN12C = test system: SN12C
SNB-19 = test system: SNB-19
SW-620 = test system: SW-620
U-251 = test system: U-251
UACC-62 = test system: UACC-62
HCT-15 = test system: HCT-15

Measured: GI50

CCCCCCCCCc1cc(=O)c2ccc(O)cc2o1
inactive: 786-0 39.8 µM | A549 37.6 µM | HOP-62 > 100 µM | IGROV-1 41.2 µM | KM12 46.9 µM | OVCAR-3 9.38 µM | OVCAR-5 > 100 µM | SF-268 44.8 µM | SF-295 47 µM | SF-539 44.4 µM | SK-OV-3 60.3 µM | SN12C > 100 µM | SNB-19 44.6 µM | SW-620 67.6 µM | U-251 33.8 µM | UACC-62 > 100 µM

Cn1c(=O)nc2n(-c3cc(C(F)(F)F)cc(C(F)(F)F)c3)c3ccccc3nc-2c1=O
inactive: 786-0 > 100 µM | A549 > 100 µM | HOP-62 > 100 µM | IGROV-1 > 100 µM | KM12 > 100 µM | OVCAR-3 64.7 µM | OVCAR-5 > 100 µM | SF-268 > 100 µM | SF-295 52.1 µM | SF-539 > 100 µM | SK-OV-3 > 100 µM | SN12C > 100 µM | SNB-19 49 µM | SW-620 > 100 µM | U-251 > 100 µM
> 100 µM: HCT-15

O=C1c2c(nc3ccccc3c2-c2ccccc2)CN1Nc1ccccc1
inactive: 786-0 > 100 µM | A549 > 100 µM | HOP-62 53.8 µM | IGROV-1 > 100 µM | KM12 > 100 µM | OVCAR-3 > 100 µM | OVCAR-5 > 100 µM | SF-268 > 100 µM | SK-OV-3 > 100 µM | SN12C > 100 µM | SW-620 > 100 µM | UACC-62 > 100 µM

COC(=O)C1=C(c2ccc3c(c2)OCO3)OC(c2ccc3c(c2)OCO3)C1 (stereo not drawn)
> 100 µM: HCT-15
inactive: 786-0 > 100 µM | A549 78.2 µM | HOP-62 > 100 µM | IGROV-1 > 100 µM | KM12 65.2 µM | OVCAR-3 > 100 µM | OVCAR-5 > 100 µM | SF-268 > 100 µM | SF-295 71.9 µM | SF-539 > 100 µM | SK-OV-3 > 100 µM | SN12C > 100 µM | SW-620 67 µM | U-251 93.8 µM | UACC-62 > 100 µM

COc1ccc2nc(NC(=O)C(=O)NNC(=O)c3ccncc3)sc2c1
inactive: 786-0 > 100 µM | A549 > 100 µM | HOP-62 > 100 µM | IGROV-1 > 100 µM | OVCAR-3 > 100 µM | SF-268 > 100 µM | SF-295 > 100 µM | SF-539 > 100 µM | SK-OV-3 > 100 µM | SN12C > 100 µM | SNB-19 > 100 µM | SW-620 > 100 µM | U-251 > 100 µM | UACC-62 > 100 µM
> 100 µM: HCT-15

COC12CCC(=O)C=C1c1ccccc1N2C(C)=O (stereo not drawn)
> 100 µM: HCT-15
inactive: 786-0 > 100 µM | A549 > 100 µM | HOP-62 > 100 µM | IGROV-1 > 100 µM | KM12 > 100 µM | OVCAR-3 > 100 µM | SF-295 > 100 µM | SF-539 > 100 µM | SK-OV-3 > 100 µM | SN12C > 100 µM | SNB-19 > 100 µM | SW-620 > 100 µM | U-251 > 100 µM | UACC-62 > 100 µM

CC(C)(C)c1cc(COc2c3sc(=S)sc3c(OCc3cc(C(C)(C)C)cc(C(C)(C)C)c3)c3sc(=S)sc23)cc(C(C)(C)C)c1
inactive: 786-0 > 100 µM | A549 > 100 µM | HOP-62 > 100 µM | IGROV-1 > 100 µM | OVCAR-3 > 100 µM | SF-295 > 100 µM | SF-539 > 100 µM | SK-OV-3 > 100 µM | SN12C > 100 µM | SNB-19 > 100 µM | SW-620 > 100 µM | U-251 > 100 µM | UACC-62 > 100 µM
> 100 µM: HCT-15

CC1CC2(CC[C@@H]1O)OCCO2 (stereo partly drawn)
inactive: 786-0 > 100 µM | A549 > 100 µM | HOP-62 > 100 µM | IGROV-1 > 100 µM | KM12 > 100 µM | OVCAR-3 > 100 µM | SF-295 > 100 µM | SF-539 > 100 µM | SK-OV-3 > 100 µM | SN12C > 100 µM | SNB-19 > 100 µM | SW-620 > 100 µM | U-251 > 100 µM | UACC-62 > 100 µM
> 100 µM: HCT-15

CCOC(=O)C(=O)Nc1ccc(Cl)c(C(F)(F)F)c1
> 100 µM: HCT-15
inactive: 786-0 > 100 µM | A549 > 100 µM | HOP-62 > 100 µM | IGROV-1 > 100 µM | OVCAR-3 > 100 µM | OVCAR-5 > 100 µM | SF-268 > 100 µM | SF-295 > 100 µM | SF-539 > 100 µM | SK-OV-3 > 100 µM | SN12C > 100 µM | SNB-19 > 100 µM | SW-620 > 100 µM | U-251 > 100 µM | UACC-62 > 100 µM

O=C1OC(c2ccccc2)=N/C1=C/C=C/c1ccco1
> 100 µM: HCT-15
inactive: 786-0 > 100 µM | A549 > 100 µM | IGROV-1 > 100 µM | KM12 > 100 µM | OVCAR-3 > 100 µM | OVCAR-5 > 100 µM | SF-268 > 100 µM | SF-295 > 100 µM | SF-539 > 100 µM | SK-OV-3 > 100 µM | SN12C > 100 µM | SNB-19 > 100 µM | SW-620 > 100 µM | U-251 > 100 µM | UACC-62 > 100 µM

O=C(Nc1ccccc1-c1nn(CO)c(=S)n(CO)c1=O)C(F)(F)F
inactive: 786-0 > 100 µM | A549 > 100 µM | HOP-62 > 100 µM | IGROV-1 > 100 µM | KM12 > 100 µM | OVCAR-3 > 100 µM | OVCAR-5 > 100 µM | SF-268 > 100 µM | SF-295 > 100 µM | SF-539 > 100 µM | SK-OV-3 > 100 µM | SN12C > 100 µM | SNB-19 > 100 µM | SW-620 > 100 µM | U-251 > 100 µM | UACC-62 > 100 µM

COc1ccc(/C=c2\sc3n(c2=O)C(N)=C(C#N)C(c2ccc(OC)cc2)C=3c2nc3ccccc3[nH]2)cc1 (stereo not drawn)
27.1 µM: HCT-15
inactive: 786-0 > 100 µM | A549 33.7 µM | HOP-62 38.7 µM | IGROV-1 44.7 µM | KM12 14.2 µM | OVCAR-3 19.6 µM | OVCAR-5 27.4 µM | SF-268 42.1 µM | SF-539 > 10 µM | SN12C 78.7 µM | SNB-19 > 100 µM | SW-620 27.7 µM | U-251 18 µM | UACC-62 79.4 µM

COc1c(Cl)c2c(c(OC)c1OC)-c1ccc(OC)c(=O)c(Cl)c1C(NC(C)=O)CC2 (stereo not drawn)
active: 786-0 0.308 µM | A549 0.225 µM | HOP-62 0.306 µM | IGROV-1 0.466 µM | KM12 0.104 µM | OVCAR-3 0.117 µM | SF-268 0.212 µM | SF-295 0.14 µM | SF-539 0.148 µM | SK-OV-3 0.133 µM | SN12C 0.444 µM | SW-620 0.12 µM | U-251 0.235 µM | UACC-62 0.108 µM
inactive: SNB-19 1.43 µM
0.356 µM: HCT-15
